Consider one compound from US9254293B2, “Methods and compositions for inhibiting or reducing hair loss, acne, rosacea, prostate cancer, and BPH” (The Trustees of the University of Pennsylvania, priority 2006, dated 2016).

Entries after “also recorded” stand apart in the source; their conditions may differ.

The test system of this assay is wild-type c57/black mice. The assay is described as follows: Topical application of PGD2 to the shaved central back of mice, effect on hair growth. It counts as in vivo. Here is the method:
25 day-old (corresponding to end of the first telogen stage) wild-type c57/black mice were treated with 200 ng of PGD2 (Cayman Chemicals) diluted in 200 μl of acetone applied to the central back after shaving. Subsequent treatments were performed every 3 days, ending on day 40 For a total of […]. Photographs were taken on day 46 of life, after the end of the 2nd anagen. In the second experiment, mice were shaved and treated with 10 μg of PGD2 dissolved in 200 μl of acetone on days 66 and 69 of life, and then photographed on day #121.

Regarding `CCCCC[C@H](O)/C=C/[C@H]1C(=O)C[C@H](O)[C@@H]1C/C=C\CCCC(=O)O` [PGD2, prostaglandin D2], the “effect of PGD2 on hair growth (alopecia)” value (25 day-old mice, 200 ng PGD2 in 200 μl acetone on central back after shaving, every 3 days to day 40 (5 applications), photographed day 46 after end of 2nd anagen) is recorded as “baldness (alopecia); also recorded: induced alopecia”. In addition, for the setting “mice shaved, 10 μg PGD2 in 200 μl acetone on days 66 and 69 of life, photographed day 121, over 50 days after the last application”, the “effect of PGD2 on hair regrowth” value is “prevent hair regrowth”.
